The source of these data is ChEMBL document CHEMBL3507680, “University of Dundee, Gates Library screen for HepG2 cell viability”.

This data set in a line: Human HepG2 cell viability assay in 384 well format. Format: toxicity, cell-based. More on the design: dose 125 nL, time 70.5 hour; cytotoxicity at 70.5 h: concentration not given beside the values. Particulars: HepG2 cells, read-out: Inhibition.
For `Cc1ccc(CNCC2CCCN2c2cccnn2)s1` (centres undefined), the cytotoxicity at 70.5 h was found to be 4.46%.

As for `Cn1ccnc1C(O)c1ccccc1N1CCN(CC2CCCC2)CC1` (centres undefined), the cytotoxicity at 70.5 h was -3.89%.

For `COc1cc2ccccc2cc1C(=O)N1CCCC(c2nncn2C)C1` (centres undefined), the cytotoxicity at 70.5 h is -11.4%.

`CCO[C@H]1CN(C)C[C@@H]1NC(=O)c1cc(C)nc2c(C)cccc12`: the cytotoxicity at 70.5 h is -8.5%.

Take `COc1ccc(Nc2nc3c(C)nn(C)c3c(=O)n2C)c(C)c1`: the cytotoxicity at 70.5 h turned out to be 0.529%.

Regarding `O=C(c1ccc(F)cc1F)N1CCN(C(=O)C2CCCCC2)CC1`, the cytotoxicity at 70.5 h was -5.82%.

As to `NC(=O)CN1CCC(OCc2ccc(Cl)c(Cl)c2)CC1`, the cytotoxicity at 70.5 h is -1.02%.

With `O=C(Nc1ccc(-n2cccn2)cc1)N1C[C@H](O)[C@@H](N2CCOCC2)C1`, the cytotoxicity at 70.5 h was -13.4%.

Turning to `CC(C)c1nnc(NC(=O)NCc2ccc(CO)c(F)c2)s1`, the cytotoxicity at 70.5 h was -13.4%.

In the case of `CN(CCCNC(=O)c1ccc(C#N)cc1)CC(F)(F)F`, the cytotoxicity at 70.5 h amounted to 5.13%.

`CCc1c(C)nc(N)nc1N1CCCC(c2nc(CCOC)no2)C1` (centres undefined): the cytotoxicity at 70.5 h came out at 4.51%.

Consider `CSCC(C)(O)CNc1ncccc1I` (centres undefined), for which the cytotoxicity at 70.5 h is 7.7%.

On to `O=C(NCc1ccc2c(c1)CCCO2)c1cn2c(n1)CNCC2`, for which the cytotoxicity at 70.5 h turned out to be 5.37%.

For the molecule `O=c1[nH]c2ncccc2n1C1CCCC1`, the cytotoxicity at 70.5 h was -0.61%.

Take `O=C(c1ccc2c(c1)[nH]c(=O)n2C1CCCC1)N1CCC1`: the cytotoxicity at 70.5 h was -3.8%.

For `COc1ccc2c(ccn2CC(=O)N2CCCC2c2cnn(C)c2)c1` (centres undefined), the cytotoxicity at 70.5 h came to 0.452%.

As for `CC(C)NC(=O)N1CCc2onc(C(=O)Nc3cccnc3)c2C1`, the cytotoxicity at 70.5 h was -9.09%.

For the molecule `COCCn1cc(NC(=O)NC(C)c2ccc(Cl)s2)cn1` (centres undefined), the cytotoxicity at 70.5 h was -3.34%.

As for `CCc1cnc(N2C[C@H]3C[C@H](C(=O)N(C)C)[C@@H](C2)O3)nc1`, the cytotoxicity at 70.5 h was -7.47%.

Turning to `CC(=O)N1CCCC1c1ccc(-c2c(C)noc2C)cn1` (centres undefined), the cytotoxicity at 70.5 h is -9.29%.

With `O=C(Nc1cnccn1)[C@@H]1CCO[C@@H]2CCN(Cc3ccsc3)C[C@@H]21`, the cytotoxicity at 70.5 h is -9.48%.

Take `CN(CCC1CCOCC1)[C@@H]1c2ccccc2C2(CCNCC2)[C@H]1O`: the cytotoxicity at 70.5 h was -4.06%.

For `Cc1cc(NC(=O)C(C)N2CCCN(c3nccs3)CC2)on1` (centres undefined), the cytotoxicity at 70.5 h was -15.9%.

Turning to `CN(CCn1cnnc1)C(=O)c1ccnc(OC2CCC2)c1`, the cytotoxicity at 70.5 h worked out at 16.2%.

For the molecule `c1ccc2sc(N3CCOC(Cn4cccn4)C3)nc2c1` (centres undefined), the cytotoxicity at 70.5 h is 3.57%.

Take `C1CC(CN2C[C@H]3CC[C@@H]2CN(Cc2noc(C4CCCC4)n2)C3)C1`: the cytotoxicity at 70.5 h amounted to 22.2%.

Regarding `COc1cc(C(C)=O)ccc1SCC(=O)Nc1cc(C)n[nH]1`, the cytotoxicity at 70.5 h is -11.8%.

In the case of `O=C(NC1(c2cccc(F)c2)CCOCC1)c1cc[nH]n1`, the cytotoxicity at 70.5 h was -4.33%.

On to `CCC(CNC(=O)NCc1cc[nH]n1)N1CCCC1` (centres undefined), for which the cytotoxicity at 70.5 h is -4.31%.

Turning to `Cc1cc(NC(=O)CC2(Cn3cnnn3)CCCCC2)nn1C`, the cytotoxicity at 70.5 h was -23.2%.

Turning to `NC(=O)c1cc2c(nc1-c1ccc3c(c1)CCO3)CCC2`, the cytotoxicity at 70.5 h is -5.32%.

Take `Cc1nc2c(c(N3CCCC(OCc4ccccn4)C3)n1)CCNCC2` (centres undefined): the cytotoxicity at 70.5 h was -14.9%.

Take `CCn1nnc2c1CCN(S(C)(=O)=O)C2COCc1ccccc1` (centres undefined): the cytotoxicity at 70.5 h worked out at 2.15%.

Consider `CO[C@@H]1CCC[C@@H](N(C)C(=O)c2cn3cc(C)ccc3n2)[C@H]1O`, for which the cytotoxicity at 70.5 h was -8.11%.

Regarding `COc1ccc(Br)c(NC(=O)NCc2ncnn2C)c1`, the cytotoxicity at 70.5 h is -9.33%.

As to `CCCOc1ccc(CNc2cncc(-n3cccn3)n2)cc1`, the cytotoxicity at 70.5 h is -6.6%.

`O=C(CCc1ccccc1)N1C[C@H]2CCN[C@H]2C1`: the cytotoxicity at 70.5 h was -7.82%.

Regarding `CN(C)C(=O)N1CCc2c(COCC3CC3)cncc2C1`, the cytotoxicity at 70.5 h was -4.34%.

Take `O=C(Nc1cnccn1)[C@@H]1C[C@H]2OCC[C@H]2N(c2ncc(F)cn2)C1`: the cytotoxicity at 70.5 h turned out to be 18%.

As to `c1ccc(N2CCN(Cc3cnc(C4CCCCO4)nc3)CC2)cc1` (centres undefined), the cytotoxicity at 70.5 h was found to be 4.6%.

`Cc1noc(CCCC(=O)N2CSCC2C(=O)NCC2CC2)n1` (centres undefined): the cytotoxicity at 70.5 h was -7.96%.

For `CC(C)C(=O)N1CCCC(Cc2ncccn2)C1` (centres undefined), the cytotoxicity at 70.5 h is -1.65%.

As to `Cc1c(C(C)NCC2CCCC2)cnn1-c1ccc(F)cc1F` (centres undefined), the cytotoxicity at 70.5 h was -11.6%.

For `CN(C)CC1CN(C(=O)CCc2ccccc2)Cc2nccn2C1` (centres undefined), the cytotoxicity at 70.5 h stood at 1.84%.

`COc1cccc(CCC2CCCN(C(=O)C3=NN(C)C(=O)CC3)C2)c1` (centres undefined): the cytotoxicity at 70.5 h was -5.36%.

Take `CCOc1ccc(C2CCCN2C(=O)NCCn2ccnc2)cc1` (centres undefined): the cytotoxicity at 70.5 h is -1.63%.

Turning to `COC(=O)c1ccc(OCC(=O)N(C)Cc2ccsc2)c(OC)c1`, the cytotoxicity at 70.5 h is -5.54%.

As for `CC(C)n1ccnc1C1CCN(Cc2ccc(Cl)s2)CC1`, the cytotoxicity at 70.5 h was -8.66%.

As to `CCOc1cc(C)nc(N2CCN(C(=O)c3cnc[nH]3)CC2)n1`, the cytotoxicity at 70.5 h was -0.152%.

Consider `CNc1cc(C2CCCN2Cc2ccccc2C(=O)O)ccn1` (centres undefined), for which the cytotoxicity at 70.5 h was -9.85%.

With `CNC(=O)c1sc2ccccc2c1CC1CCCN1Cc1cnc(C)s1` (centres undefined), the cytotoxicity at 70.5 h is -10.5%.

`CCCN1CCC2(CC1)CN(C(=O)c1cccnc1)c1ccc(F)cc12`: the cytotoxicity at 70.5 h was -8.65%.

Consider `c1coc(CN2CCC(c3ccc4c(c3)OCO4)CC2)c1`, for which the cytotoxicity at 70.5 h was -3.77%.

On to `COc1ccc(C(=O)N2CCCC(C)C2)cc1F` (centres undefined), for which the cytotoxicity at 70.5 h is -2.9%.

Consider `COC(C)(C)C(=O)N[C@H]1CN(c2ncccc2C(N)=O)C[C@@H]1C(C)C`, for which the cytotoxicity at 70.5 h was found to be 0.335%.

On to `Cc1cc(NC(=O)c2ccc(-n3ncc(C#N)c3N)cc2)n(C)n1`, for which the cytotoxicity at 70.5 h is -8.66%.

Take `Cn1ccc(C(=O)N2CCCC(c3cc4cccnc4c(O)n3)C2)n1` (centres undefined): the cytotoxicity at 70.5 h is -9.08%.

For `COCCOc1cccc(C(=O)N2CCCC(n3ccnc3C)C2)c1` (centres undefined), the cytotoxicity at 70.5 h was -2.47%.

`COCCN1CCC2(CCC1=O)CN(c1ccnc(SC)n1)CCN2C` (centres undefined): the cytotoxicity at 70.5 h was -4.09%.

Take `CC(C)c1nccn1C(C)C(=O)N1CCN(c2ccccc2Cl)CC1` (centres undefined): the cytotoxicity at 70.5 h is -4.99%.

Take `CC(C)c1nnc2ccc(N3CCCC(C(=O)Nc4nccs4)C3)nn12` (centres undefined): the cytotoxicity at 70.5 h is -25.2%.

In the case of `CC(NCC1=Cc2cc(Cl)ccc2OC1)c1nnc2n1CCCC2` (centres undefined), the cytotoxicity at 70.5 h was -3.35%.

As for `COc1ccc(CNC(C)c2ccc(Cl)c(Cl)c2)c(OC)c1OC` (centres undefined), the cytotoxicity at 70.5 h came out at 5.68%.

In the case of `O=S(=O)(c1ccc(-c2cnco2)cc1)N1CCCC(O)(CO)CC1` (centres undefined), the cytotoxicity at 70.5 h is 12.5%.

On to `O=C(NCC1(Sc2ccccc2)CC1)c1c[nH]nn1`, for which the cytotoxicity at 70.5 h is -0.96%.

Consider `O=C(NCCN1CCOCC1)c1ccnn1-c1ccc2ccccn12`, for which the cytotoxicity at 70.5 h came out at 3.81%.

For the molecule `CCOC1CCN(C(=O)NCCc2ccn(-c3ccccc3)n2)CC1`, the cytotoxicity at 70.5 h is -2.77%.

Turning to `Cc1cnn(CC2CCCCN2C(=O)CC(F)(F)F)c1` (centres undefined), the cytotoxicity at 70.5 h was -3.76%.

Turning to `CC1CCN(S(=O)(=O)NCC2CCOc3ccccc3C2)CC1` (centres undefined), the cytotoxicity at 70.5 h is -7.61%.

Consider `C[C@@H]1C[C@@H]2CCN(Cc3ccncc3)C[C@H]2O1`, for which the cytotoxicity at 70.5 h is -3.23%.

Take `CC(C)Cc1noc(CN2CCN(C(=O)c3cccs3)CC2)n1`: the cytotoxicity at 70.5 h is -11.2%.

With `CCc1cc(O)nc(C2CCCN2C(=O)c2cc(C)no2)n1` (centres undefined), the cytotoxicity at 70.5 h was 8.47%.

As for `Cc1ccc(C2CSCCN2C(=O)c2ccccn2)cc1` (centres undefined), the cytotoxicity at 70.5 h was -13.2%.

`Cc1nc(C)c(C)c(N2CCC3(CCN(C)C3)C2)n1` (centres undefined): the cytotoxicity at 70.5 h was -8.86%.

For `Cc1ccc(NC(=O)N2CCC(NC(=O)c3ccc(C)o3)CC2)cc1`, the cytotoxicity at 70.5 h is -11.5%.

With `O=C1NCC(C(=O)Nc2ncc(Cc3cccc(F)c3)s2)N1` (centres undefined), the cytotoxicity at 70.5 h was -6.09%.

As to `O=C(c1ccoc1)N(Cc1cccnc1)C1CC1`, the cytotoxicity at 70.5 h was -21.3%.

As for `O=C(Cn1cc(I)cn1)N1CCCCCC1`, the cytotoxicity at 70.5 h is -3.07%.

As for `c1ccc(OC[C@@H]2CCC[C@@]23CNCCO3)nc1`, the cytotoxicity at 70.5 h was found to be 10.8%.

`COc1ccc(CNCCC(=O)N2CCc3sccc3C2)cc1O`: the cytotoxicity at 70.5 h came out at 5.44%.

On to `Cc1ccoc1C(=O)N1C[C@@H](N2CCN(C)CC2)[C@H]2OCCC[C@H]21`, for which the cytotoxicity at 70.5 h is -4.64%.

On to `Cc1nc(C)n(C2CCCN(C(=O)c3ccc(N(C)C)nn3)C2)n1` (centres undefined), for which the cytotoxicity at 70.5 h is -3.22%.

For `COCCN(c1ccncc1)S(=O)(=O)c1cc(C)c(F)cc1F`, the cytotoxicity at 70.5 h was 15.9%.

As to `Cc1nn(CC(=O)N2CCCCC2Cn2cccn2)c(C)c1Cl` (centres undefined), the cytotoxicity at 70.5 h is -0.411%.

For the molecule `CCc1nc(C)ncc1C(=O)N1CC(=O)N(C)c2ccccc21`, the cytotoxicity at 70.5 h was -10.1%.

As to `Cc1cnn(CC2CN(c3nc4ccccc4o3)CCO2)c1` (centres undefined), the cytotoxicity at 70.5 h came to 16.4%.

In the case of `CCC(C)NC(=O)Nc1cccc(OC)c1` (centres undefined), the cytotoxicity at 70.5 h is -5.26%.

Consider `N#Cc1c(C2CCOC2)cc(-c2ccc(N3CCCCC3)cc2)nc1N` (centres undefined), for which the cytotoxicity at 70.5 h was -7.42%.

Consider `Cc1ccc2c(n1)N(C)CCN(C(=O)C1CC1)C2`, for which the cytotoxicity at 70.5 h was -8.52%.

Turning to `CCCn1c(C)c(CC(=O)NCCC(N)=O)c2c1CC(C)(C)CC2=O`, the cytotoxicity at 70.5 h worked out at 11.1%.

Take `Cc1cc(Br)ccc1NCC(=O)Nc1cc(C(C)(C)C)no1`: the cytotoxicity at 70.5 h was -4.88%.

Regarding `O=c1cc(N2CCNCC2)cnn1Cc1noc(C2CCCC2)n1`, the cytotoxicity at 70.5 h was -23.8%.

For `CCc1ccc(NC(=O)CCN2CC(n3nc(C)cc3C)C2)cc1`, the cytotoxicity at 70.5 h was -1.14%.

Consider `CC(C)NC(=O)CCNC(=O)Nc1cnn(-c2ccccc2Cl)c1`, for which the cytotoxicity at 70.5 h was -6.67%.

As for `Cc1ccc(NC2CCN(C(=O)CCCc3ccccn3)CC2)cc1`, the cytotoxicity at 70.5 h is -8.59%.

As for `COc1cc(C)c(CNC(C)c2csc(C3CC3)n2)cc1OC` (centres undefined), the cytotoxicity at 70.5 h is -4%.

As for `COCCN1C(=O)C2(CCC(C(=O)Nc3ccc(C)cc3)CC2)N=C1C` (centres undefined), the cytotoxicity at 70.5 h is 10.5%.

Consider `COCc1cccc(S(=O)(=O)N2CCSCC2)c1`, for which the cytotoxicity at 70.5 h came to 14%.

Take `CC(C)N(C)S(=O)(=O)c1ccc2c(c1)CCN(C(=O)c1cscn1)C2`: the cytotoxicity at 70.5 h is -20.3%.
